Data as given in PubChem BioAssay (NCI).
“And” between values parts separate entries of the source, which are not always exact repeats. Identical values can stand only once.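 All cell lines were grown in 96-well plates and treated with compound for 48 hours. The concentration for 50% growth inhibition is given as GI50. TGI: concentration producing complete growth inhibition.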

What was measured:
Experiment in all cases: NCI tumour cell line growth inhibition, 48 h
EKVX NSCLC = tested on: EKVX NSCLC
HL-60(TB) leukemia = tested on: HL-60(TB) leukemia
HOP-62 NSCLC = tested on: HOP-62 NSCLC
IGROV1 ovarian = tested on: IGROV1 ovarian
NCI-H23 lung = tested on: NCI-H23 lung
NCI/ADR-RES ovarian = tested on: NCI/ADR-RES ovarian
OVCAR-3 ovarian = tested on: OVCAR-3 ovarian
OVCAR-8 ovarian = tested on: OVCAR-8 ovarian
SF-268 CNS = tested on: SF-268 CNS
SNB-75 CNS = tested on: SNB-75 CNS

SMILES	GI50 (EKVX NSCLC)	TGI (EKVX NSCLC) [µM]	GI50 (HL-60(TB) leukemia)	GI50 (HOP-62 NSCLC)	TGI (HOP-62 NSCLC) [µM]	GI50 (IGROV1 ovarian)	TGI (IGROV1 ovarian) [µM]	GI50 (NCI-H23 lung)	TGI (NCI-H23 lung) [µM]	GI50 (NCI/ADR-RES ovarian)	TGI (NCI/ADR-RES ovarian) [µM]	GI50 (OVCAR-3 ovarian)	TGI (OVCAR-3 ovarian) [µM]	GI50 (OVCAR-8 ovarian)	TGI (OVCAR-8 ovarian) [µM]	GI50 (SF-268 CNS)	TGI (SF-268 CNS) [µM]	GI50 (SNB-75 CNS)	TGI (SNB-75 CNS) [µM]	TGI (HL-60(TB) leukemia) [µM]
COc1cc(C(=O)Nc2cc(O)c(C/C=C(\C)CCC=C(C)C)c(O)c2)cc2c1O[C@]1(C)CC[C@@H](O)C(C)(C)[C@H]1C2	1.12 µM and 1.16 µM	14.8	0.00716 µM and 0.0699 µM	0.0537 µM and 0.176 µM	6.97	3.37 µM and 0.881 µM	19.5	1.61 µM and 2.09 µM	19.7	9.22 µM and 6.62 µM	> 76.4	3.17 µM and 1.76 µM	6.12	4.28 µM and 2.21 µM	31.4	1.1 µM and 0.741 µM	15.8	0.00898 µM and < 0.0111 µM	7.56	–
CCCC(=O)Nc1ncnc2c1ncn2C1OC2COP(=O)(O)OC2C1OC(=O)CCC (stereo unspecified)	> 1000 µM	> 1000	–	> 1000 µM	> 1000	> 1000 µM	–	> 1000 µM	> 1000	> 1000 µM	> 1000	> 1000 µM	> 1000	> 1000 µM	> 1000	> 1000 µM	> 1000	> 1000 µM	> 1000	> 1000
O=C(c1ccncc1)N1CCN(C2=NS(=O)(=O)c3ccccc3N2c2ccccc2)CC1	35 µM	> 100	17.1 µM	8.06 µM	32.3	25.1 µM	> 100	7.43 µM	41.6	> 100 µM	> 100	32.1 µM	> 100	27.7 µM	> 100	8.37 µM	> 100	15.5 µM	53.2	> 100
CC#CC(=O)N[C@H]1CCCN(c2c(F)cc(C(N)=O)c3[nH]c(C)c(C)c23)C1	18.3 µM	45.9	21.4 µM	24.9 µM	> 100	14 µM	31.6	19.5 µM	41.8	19.9 µM	49.6	21.9 µM	63.7	26.1 µM	94.7	17.4 µM	45.1	7.66 µM	21.3	46
COc1cc([N+](=O)[O-])c(OC)cc1-c1nc2n(c1/C(N)=N/C(=N)N)CCS2	40.3 µM	> 100	> 100 µM	6.23 µM	50.6	17.7 µM	> 100	23.3 µM	87.1	> 100 µM	> 100	33.5 µM	> 100	17.5 µM	> 100	45.8 µM	> 100	6.76 µM	> 100	> 100
N#C/C(=C\c1ccc([N+](=O)[O-])s1)c1nc2cc(Br)ccc2s1	0.246 µM	1.1	3.82 µM	0.314 µM	1.68	0.254 µM	1.14	0.279 µM	1.35	0.276 µM	0.827	0.248 µM	0.733	0.246 µM	0.805	0.468 µM	> 100	0.355 µM	–	> 100
CCCCC/C=C\C/C=C/CCCCCCCCNC(=O)Nc1ccc([N+](=O)[O-])cc1	23.8 µM	> 100	19.9 µM	40.8 µM	> 100	26.4 µM	> 100	5.19 µM	72	7.8 µM	> 100	6.74 µM	> 100	8.82 µM	> 100	38 µM	> 100	22.9 µM	> 100	47.5
Cc1ccc2nc(CC(=O)c3ccc4ccccc4c3)c(=O)[nH]c2c1	–	> 100	–	–	> 100	–	> 100	–	> 100	–	> 100	–	> 100	–	> 100	–	> 100	–	> 100	> 100
C/C=C(\C)C(=O)OC1C2C(C)C(=O)OC2C(O)C(C)C2C=CC(=O)C21C (stereo unspecified)	–	38	–	–	40.3	–	25.5	–	27.1	–	49.9	–	23.7	–	34.8	–	56.5	–	43.3	18.4
COC(=O)c1cc(NC(=O)CN(CCN(CC(=O)O)CC(=O)Nc2ccc(O)c(C(=O)OC)c2)CC(=O)O)ccc1O	> 100 µM	> 100	42.2 µM	42.3 µM	> 100	> 100 µM	> 100	78.9 µM	> 100	> 100 µM	> 100	> 100 µM	> 100	77.3 µM	> 100	43.2 µM	> 100	55.3 µM	> 100	> 100
NCC(=O)NC(CO)C(=O)O (stereo unspecified)	–	> 100	–	–	> 100	–	> 100	–	> 100	–	> 100	–	> 100	–	> 100	–	> 100	–	> 100	> 100
Nc1nc(Cl)nc2c1ncn2C1CCC(COP(=O)(O)OP(=O)(O)OP(=O)(O)O)O1 (stereo unspecified)	–	> 100	–	–	51.1	–	> 100	–	41.6	–	55.8	–	> 100	–	51.9	–	> 100	–	94.2	63.7
